Measured values reported in paper PMC7806715, “Discovery of small molecules targeting the tandem tudor domain of the epigenetic factor UHRF1 using fragment-based ligand discovery” (Scientific Reports, 2021).

Legend:
C-FLAG-UHRF1-FL = target: T1, C-FLAG-UHRF1-FL (Homo sapiens, UniProt Q96T88); test: Intrinsic tryptophan fluorescence of C-FLAG-UHRF1-FL; type: binding; details: 5 µM protein
T1 construct: His6-UHRF1-full length (His6-UHRF1-FL); His (N); made in house; host or cells: Rosetta (DE3) E. coli, pMCSG7
T1 sequence (Q96T88 1-793): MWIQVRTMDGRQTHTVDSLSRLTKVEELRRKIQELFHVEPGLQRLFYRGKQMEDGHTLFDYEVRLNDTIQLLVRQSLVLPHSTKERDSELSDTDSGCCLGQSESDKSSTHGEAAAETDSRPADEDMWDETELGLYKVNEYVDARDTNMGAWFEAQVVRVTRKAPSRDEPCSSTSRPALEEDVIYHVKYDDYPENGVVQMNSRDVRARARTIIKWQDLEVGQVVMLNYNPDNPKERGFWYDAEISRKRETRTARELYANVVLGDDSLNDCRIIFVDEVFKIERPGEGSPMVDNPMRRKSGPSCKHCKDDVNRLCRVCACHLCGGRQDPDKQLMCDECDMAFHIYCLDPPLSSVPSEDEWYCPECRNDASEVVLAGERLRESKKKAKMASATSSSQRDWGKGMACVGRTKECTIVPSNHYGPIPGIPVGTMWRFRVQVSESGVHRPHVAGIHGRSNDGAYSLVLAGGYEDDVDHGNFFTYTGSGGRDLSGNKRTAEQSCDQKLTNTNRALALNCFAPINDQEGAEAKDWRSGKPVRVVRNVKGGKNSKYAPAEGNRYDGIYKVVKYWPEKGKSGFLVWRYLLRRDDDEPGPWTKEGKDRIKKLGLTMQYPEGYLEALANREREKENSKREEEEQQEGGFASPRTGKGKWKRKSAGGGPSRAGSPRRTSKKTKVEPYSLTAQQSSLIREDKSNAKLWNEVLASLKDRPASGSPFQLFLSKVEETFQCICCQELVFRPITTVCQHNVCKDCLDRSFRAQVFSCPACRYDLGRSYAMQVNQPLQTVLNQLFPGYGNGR
Description: The untagged TTD was diluted to 30 µM by buffer (50 mM sodium phosphate, pH 7.5, 150 mM NaCl) with or without 60 µM of H3K9me3 peptide (1–20) (Anaspec). 10 µL of diluted TTD was added into 384-well flat bottom black plate (Greiner, Cat# 781086). […] The final concentration of TTD was 15 µM and the H3K9me3 peptide (if included) was 30 µM. The experiment was performed at room temperature. […] After compound addition, the intrinsic tryptophan fluorescence was analyzed by the Tecan Infinite M1000 plate reader (excitation 280 nm, emission 334 nm). […] Tryptophan fluorescence monitors 2 , 4 - lutidine binding to His 6 - TTD, His 6 - TTD - PHD, and C - FLAG - UHRF 1 - FL . 2 , 4 - Lutidine dose - dependently quenched the tryptophan fluorescence of TTD (purple circle), while only started to show quenching effect against His 6 - TTD - PHD at mM concentration (blue diamond) . 2 , 4 - Lutidine had no effect on the fluorescence of C - FLAG - UHRF 1 - FL and the control USP 7 - UBL 1 / 2 protein . n= 3 for each data point . (Note : the standard deviation error bars are included, but the error values are often extremely small in this assay) . […]

[1] = target: T2, TTD-PHD S298D mutant vs. H3K9me3 peptide (Homo sapiens, UniProt Q96T88, S298D); test: TR-FRET assay: TTD-PHD S298D mutant binding to H3K9me3 peptide; type: biochemical; details: 2.5 mM 2,4-lutidine
T2 construct: made in house; host or cells: E. coli (host printed for TTD-PHD in general: Rosetta (DE3))
T2 sequence (Q96T88 123-366 S298D): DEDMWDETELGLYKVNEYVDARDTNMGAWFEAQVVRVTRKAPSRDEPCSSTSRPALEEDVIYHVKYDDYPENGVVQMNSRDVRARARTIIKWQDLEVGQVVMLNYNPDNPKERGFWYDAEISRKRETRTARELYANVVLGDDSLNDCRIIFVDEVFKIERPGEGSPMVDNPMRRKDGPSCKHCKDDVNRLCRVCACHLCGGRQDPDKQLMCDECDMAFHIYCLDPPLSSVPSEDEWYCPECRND
Description: The fragment screen was carried out on low volume 384-well white plates (Corning 4512) and the assay was performed at room temperature. […] After 1 h of incubation, the fluorescent signals at 665 nm and 620 nm of each plate were measured by the Tecan Infinite M1000 plate reader (excitation 340 nm, 60 μs lag time, and 500 μs integration time) and the TR-FRET signal was calculated by the ratio of 665 nm/620 nm fluorescent signal. For the fragment screen, on seven of the library plates there were 32-wells of DMSO control, while there were 8-wells of DMSO control in the last plate. […] The only difference was that the final concentration of […] assay, while the final concentration of His6-UHRF1-FL was 200 nM and biotin-H3K9me3 peptide was 100 nM for the His6-UHRF1-FL TR-FRET assay. The buffer pH was 7.5 for the His6-TTD-PHD and His6-UHRF1-FL assays.

Cc1ccnc(C)c1 [2,4-lutidine]
quenching of C-FLAG-UHRF1 tryptophan fluorescence (in words) (C-FLAG-UHRF1-FL): did not quench | inhibition of binding to H3K9me3 peptide [1]: 44.5%
